How the values were obtained:
[1] = system: Mycobacterium intracellulare; assay: Antimicrobial activity against Mycobacterium intracellulare ATCC 23068 by Alamar blue method; format: functional, organism-based
Pichia kudriavzevii = assay: Antimicrobial activity against Candida krusei ATCC 6258 by Alamar blue method; format: functional, organism-based
Cryptococcus neoformans = assay: Antimicrobial activity against Cryptococcus neoformans ATCC 90113 by Alamar blue method; format: functional, organism-based
Staphylococcus aureus [2] = assay: Antimicrobial activity against methicillin-resistant Staphylococcus aureus ATCC 33591 by Alamar blue method; format: functional, organism-based
Nakaseomyces glabratus = assay: Antimicrobial activity against Candida glabrata by Alamar blue method; format: functional, organism-based
Staphylococcus aureus [3] = assay: Antimicrobial activity against Staphylococcus aureus ATCC 29213 by Alamar blue method; format: functional, organism-based; settings: Staphylococcus aureus, ATCC 29213; for IC50: read-out: IC50
Candida albicans = assay: Antimicrobial activity against Candida albicans ATCC 90028 by Alamar blue method; format: functional, organism-based
[4] = Cytotoxicity against african green monkey Vero cells after 48 hrs by Neutral Red dye assay; format: cell-based; settings: chlorocebus sabaeus, read-out: TC50
Aspergillus fumigatus = assay: Antimicrobial activity against Aspergillus fumigatus ATCC 204305 by Alamar blue method; format: functional, organism-based
Vero = assay: Cytotoxicity against african green monkey Vero cells at 10 ug/ml after 48 hrs by Neutral Red dye assay; format: cell-based; settings: chlorocebus sabaeus

Compound | IC50 [1] [µg/mL] | MBC [1] [µg/mL] | MIC [1] [µg/mL] | IC50 (Pichia kudriavzevii) [µg/mL] | MFC (Pichia kudriavzevii) [µg/mL] | MIC (Pichia kudriavzevii) [µg/mL] | MIC (Cryptococcus neoformans) [µg/mL] | IC50 (Staphylococcus aureus [2]) [µg/mL] | MBC (Staphylococcus aureus [2]) [µg/mL] | MIC (Staphylococcus aureus [2]) [µg/mL] | IC50 (Nakaseomyces glabratus) [µg/mL] | MFC (Nakaseomyces glabratus) [µg/mL] | MIC (Nakaseomyces glabratus) [µg/mL] | MBC (Staphylococcus aureus [3]) [µg/mL] | MIC (Staphylococcus aureus [3]) [µg/mL] | IC50 (Staphylococcus aureus [3]) [µg/mL] | IC50 (Candida albicans) [µg/mL] | MIC (Candida albicans) [µg/mL] | IC50 (Aspergillus fumigatus) [µg/mL] | MIC (Aspergillus fumigatus) [µg/mL] | further results
FC(F)(F)c1ccc(CSc2cc3ccccc3[n+](CCCCCC3CCCCC3)c2)cc1.[I-] | 4.7 | 10 | 10 | 0.46 | 1.3 | 1.3 | 0.31 | 0.36 | 1.3 | 0.63 | 2.7 | 5 | 5 | 1.3 | 0.63 | 0.28 | 1.4 | 2.5 | 2.9 | 5 | MFC (Cryptococcus neoformans): 0.31 µg/mL; MFC (Candida albicans): 2.5 µg/mL; CC50 at 48 h [4]: 7.9 µg/mL; MFC (Aspergillus fumigatus): 5 µg/mL
Cc1ccc(CSc2cc3ccccc3[n+](CCCCCC3CCCCC3)c2)cc1.[I-] | 7.5 | 10 | 10 | 0.27 | 1.3 | 1.3 | 0.31 | 0.49 | 2.5 | 1.3 | 3.1 | 5 | 5 | 2.5 | 0.63 | 0.39 | 1.4 | 2.5 | 4.5 | 10 | MFC (Cryptococcus neoformans): 0.31 µg/mL; MFC (Candida albicans): 5 µg/mL; CC50 at 48 h [4]: 6.8 µg/mL; MFC (Aspergillus fumigatus): 10 µg/mL
N#Cc1cccc(CSc2cc3ccccc3[n+](CCCCCC3CCCCC3)c2)c1.[I-] | 4.8 | 10 | 5 | 1.1 | 2.5 | 2.5 | 2.5 | 0.72 | 5 | 1.3 | 4.7 | 10 | 10 | 2.5 | 1.3 | 0.69 | 4.3 | 10 | 8.6 | 20 | Activity (Vero): Non-toxic; IC50 (Cryptococcus neoformans): 1.1 µg/mL; MFC (Cryptococcus neoformans): 5 µg/mL; MFC (Candida albicans): 20 µg/mL; MFC (Aspergillus fumigatus): 20 µg/mL
Cc1ccccc1CSc1cc2ccccc2[n+](CCCCCC2CCCCC2)c1.[I-] | 6.7 | 10 | 10 | 0.84 | 2.5 | 2.5 | 0.63 | 0.73 | 2.5 | 1.3 | 2.8 | 5 | 5 | 2.5 | 0.63 | 0.4 | 1.4 | 2.5 | 4.1 | 10 | Activity (Vero): Non-toxic; IC50 (Cryptococcus neoformans): 0.39 µg/mL
Clc1ccccc1CSc1cc2ccccc2[n+](CCCCCC2CCCCC2)c1.[I-] | 13 | 20 | 20 | 0.34 | 2.5 | 2.5 | 2.5 | 0.74 | 5 | 1.3 | 6 | 10 | 10 | 5 | 1.3 | 0.77 | 5.6 | 10 | 17 | 20 | Activity (Vero): Non-toxic; IC50 (Cryptococcus neoformans): 1.5 µg/mL; MFC (Cryptococcus neoformans): 5 µg/mL; MFC (Candida albicans): 20 µg/mL; MFC (Aspergillus fumigatus): 20 µg/mL
COc1cccc(CSc2cc3ccccc3[n+](CCCCCC3CCCCC3)c2)c1.[I-] | 3.7 | 5 | 5 | 0.88 | 2.5 | 2.5 | 0.63 | 0.33 | 1.3 | 0.63 | 9.7 | 20 | 20 | 1.3 | 0.63 | 0.28 | 4.8 | 10 | 10.9 | 20 | Activity (Vero): Non-toxic; IC50 (Cryptococcus neoformans): 0.35 µg/mL; MFC (Cryptococcus neoformans): 2.5 µg/mL; MFC (Candida albicans): 10 µg/mL; MFC (Aspergillus fumigatus): > 20 µg/mL
Brc1ccc(CSc2cc3ccccc3[n+](CCCCCC3CCCCC3)c2)cc1.[I-] | 6.1 | 10 | 10 | 0.49 | 0.63 | 0.63 | 0.63 | 0.4 | 1.3 | 0.63 | 1.6 | 5 | 5 | 1.3 | 0.63 | 0.4 | 0.5 | 1.3 | 2.4 | 5 | Activity (Vero): Non-toxic; IC50 (Cryptococcus neoformans): 0.22 µg/mL; MFC (Cryptococcus neoformans): 0.63 µg/mL; MFC (Candida albicans): 2.5 µg/mL; MFC (Aspergillus fumigatus): 5 µg/mL
